This assay addresses GCase enzyme (Cerezyme, recombinant human GCase) (Homo sapiens, UniProt P04062, R534H).
Chain of GCase enzyme (Cerezyme, recombinant human GCase) (P04062 40-536 R534H limits assumed): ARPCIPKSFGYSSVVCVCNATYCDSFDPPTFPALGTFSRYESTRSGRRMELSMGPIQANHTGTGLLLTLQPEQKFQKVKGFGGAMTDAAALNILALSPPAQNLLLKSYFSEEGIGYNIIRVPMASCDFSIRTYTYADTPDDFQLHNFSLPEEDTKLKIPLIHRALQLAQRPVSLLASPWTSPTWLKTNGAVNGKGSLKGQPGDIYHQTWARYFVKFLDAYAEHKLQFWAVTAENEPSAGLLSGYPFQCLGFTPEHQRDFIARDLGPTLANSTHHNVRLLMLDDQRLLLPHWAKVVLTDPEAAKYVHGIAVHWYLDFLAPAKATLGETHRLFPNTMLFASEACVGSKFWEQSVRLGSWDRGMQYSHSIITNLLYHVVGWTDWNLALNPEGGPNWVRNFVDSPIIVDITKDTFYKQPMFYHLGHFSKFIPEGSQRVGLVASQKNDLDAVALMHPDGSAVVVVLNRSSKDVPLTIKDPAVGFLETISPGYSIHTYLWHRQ
Description: Assay for Determination of Ki Values for Inhibition of GCase Activity
Various concentrations of test compounds were prepared in DMSO and then diluted into buffer consisting of 50 mM sodium phosphate 0.25% w/v sodium taurodexoycholate, pH 7.0. […] The reaction solution consisted of 25 μL of 6 mM 4-methylumbelliferone-β-D glucopyranoside in 10% DMSO in the same buffer, 12.5 μL of enzyme and 12.5 μL of various concentrations of test compound diluted in buffer. […] The reaction was initiated by addition of enzyme and allowed to proceed for 20 min at 37° C. to assess GCase activity. […] IC50 values were determined by fitting the data to a log [inhibitor concentration] versus response curve using GraphPad Prism.
As a reminder, the IC50 is the concentration at which inhibition is half-maximal. Regarding `CCC#C[C@@H]1[C@@H](O)[C@H](O)CNC12CC2` [Example 22, (6R,7R,8S)-8-(but-1-yn-1-yl)-4-azaspiro[2.5]octane-6,7-diol], the IC50 stood at 2.4 nM. In general, Ki refers to a measure of affinity in units of concentration, obtained from inhibition or displacement. In the case of `OC[C@@H]1[C@@H](O)[C@H](O)CNC12CC2` [Example 2, (6R,7R,8R)-8-(hydroxymethyl)-4-azaspiro[2.5]octane-6,7-diol], the IC50 amounted to 13 nM and the Ki was determined as 7 nM. Turning to `O[C@H]1[C@H](O)CNC2(CC2)[C@@H]1/C=C\F` [Example 17, (6R,7R,8S)-8-((Z)-2-fluorovinyl)-4-azaspiro[2.5]octane-6,7-diol], the IC50 was 36 nM. Consider `C#C[C@@H]1[C@@H](O)[C@H](O)CNC12CC2` [Example 20, (6R,7R,8S)-8-ethynyl-4-azaspiro[2.5]octane-6,7-diol], for which the IC50 was 13 nM and the Ki came out at 7.9 nM. Turning to `CC1(C)NC[C@@H](O)[C@H](O)[C@H]1CO` [(3R,4R,5R)-5-(hydroxymethyl)-6,6-dimethylpiperidine-3,4-diol, reference compound], the IC50 came out at 3440 nM. Consider `CC[C@@H]1[C@@H](O)[C@H](O)CNC12CC2` [Example 12, (6R,7R,8S)-8-ethyl-4-azaspiro[2.5]octane-6,7-diol], for which the IC50 amounted to 6.3 nM. As for `O=C(NC1CC1)[C@@H]1[C@@H](O)[C@H](O)CNC12CC2` [Example 11, (6R,7R,8S)-N-cyclopropyl-6,7-dihydroxy-4-azaspiro[2.5]octane-8-carboxamide], the IC50 is 462 nM. On to `O[C@H]1[C@H](O)CNC2(CC2)[C@@H]1/C=C/F` [Example 18, (6R,7R,8S)-8-((E)-2-fluorovinyl)-4-azaspiro[2.5]octane-6,7-diol], for which the IC50 was determined as 20 nM. Take `C[C@@H]1[C@@H](O)[C@H](O)CNC12CC2` [Example 1, (6R,7R,8S)-8-methyl-4-azaspiro[2.5]octane-6,7-diol]: the concentration for half-maximal inhibition (IC50) was 3.7 nM and the Ki was 2.6 nM. Regarding `O[C@H]1[C@H](O)CNC2(CC2)[C@@H]1CCl` [Example 5, (6R,7R,8S)-8-(chloromethyl)-4-azaspiro[2.5]octane-6,7-diol], the IC50 worked out at 7.4 nM.

As to `O[C@H]1[C@H](O)CNC2(CC2)[C@@H]1CF` [Example 3, (6R,7R,8S)-8-(fluoromethyl)-4-azaspiro[2.5]octane-6,7-diol], the IC50 worked out at 6.2 nM and the Ki is 2.1 nM.

`O[C@H]1[C@H](O)CNC2(CC2)[C@@H]1C#CCC(F)F` [Example 28, (6R,7R,8S)-8-(4,4-difluorobut-1-yn-1-yl)-4-azaspiro[2.5]octane-6,7-diol]: the IC50 was determined as 11 nM.

`N#C[C@@H]1[C@@H](O)[C@H](O)CNC12CC2` [Example 8, (6R,7R,8R)-6,7-dihydroxy-4-azaspiro[2.5]octane-8-carbonitrile]: the IC50 was determined as 75 nM.

As for `CNC(=O)[C@@H]1[C@@H](O)[C@H](O)CNC12CC2` [Example 10, (6R,7R,8S)-6,7-dihydroxy-N-methyl-4-azaspiro[2.5]octane-8-carboxamide], the IC50 turned out to be 264 nM.

Turning to `O[C@H]1[C@H](O)CNC2(CC2)[C@@H]1C(F)F` [Example 4, (6R,7R,8S)-8-(difluoromethyl)-4-azaspiro[2.5]octane-6,7-diol], the IC50 is 6.5 nM and the Ki stood at 8 nM. For `OCC#C[C@@H]1[C@@H](O)[C@H](O)CNC12CC2` [Example 24, (6R,7R,8S)-8-(3-hydroxyprop-1-yn-1-yl)-4-azaspiro[2.5]octane-6,7-diol], the IC50 stood at 17 nM. `O[C@H]1[C@H](O)CNC2(CC2)[C@@H]1C#CCCF` [Example 27, (6R,7R,8S)-8-(4-fluorobut-1-yn-1-yl)-4-azaspiro[2.5]octane-6,7-diol]: the IC50 came to 2.5 nM.

For the molecule `COC[C@@H]1[C@@H](O)[C@H](O)CNC12CC2` [Example 6, (6R,7R,8R)-8-(methoxymethyl)-4-azaspiro[2.5]octane-6,7-diol], the IC50 stood at 7.5 nM. For `CO[C@@H]1[C@@H](O)[C@H](O)CNC12CC2` [Example 7, (6R,7S,8S)-8-methoxy-4-azaspiro[2.5]octane-6,7-diol], the half-inhibitory concentration (IC50) is 32 nM. Consider `C=C[C@@H]1[C@@H](O)[C@H](O)CNC12CC2` [Example 16, (6R,7R,8S)-8-vinyl-4-azaspiro[2.5]octane-6,7-diol], for which the IC50 is 6.8 nM and the Ki turned out to be 7.6 nM. As to `CCC[C@@H]1[C@@H](O)[C@H](O)CNC12CC2` [Example 13, (6R,7R,8S)-8-propyl-4-azaspiro[2.5]octane-6,7-diol], the IC50 was determined as 15 nM. `O[C@H]1[C@H](O)CNC2(CC2)[C@@H]1C=C(F)F` [Example 19, (6R,7R,8S)-8-(2,2-difluorovinyl)-4-azaspiro[2.5]octane-6,7-diol]: the IC50 turned out to be 75 nM. On to `O[C@H]1[C@H](O)CNC2(CC2)[C@@H]1C#CC(F)F` [Example 26, (6R,7R,8S)-8-(3,3-difluoroprop-1-yn-1-yl)-4-azaspiro[2.5]octane-6,7-diol], for which the IC50 stood at 22 nM and the Ki is 17 nM.

For `CC#C[C@@H]1[C@@H](O)[C@H](O)CNC12CC2` [Example 21, (6R,7R,8S)-8-(prop-1-yn-1-yl)-4-azaspiro[2.5]octane-6,7-diol], the IC50 is 9.7 nM and the Ki was found to be 6.7 nM. Regarding `O[C@H]1[C@H](O)CNC2(CC2)[C@@H]1CCF` [Example 14, (6R,7R,8S)-8-(2-fluoroethyl)-4-azaspiro[2.5]octane-6,7-diol], the IC50 was found to be 27 nM. Take `CCCC#C[C@@H]1[C@@H](O)[C@H](O)CNC12CC2` [Example 23, (6R,7R,8S)-8-(pent-1-yn-1-yl)-4-azaspiro[2.5]octane-6,7-diol]: the IC50 was found to be 6.7 nM. As for `O[C@H]1[C@H](O)CNC2(CC2)[C@@H]1C#CCF` [Example 25, (6R,7R,8S)-8-(3-fluoroprop-1-yn-1-yl)-4-azaspiro[2.5]octane-6,7-diol], the IC50 turned out to be 16 nM and the Ki came out at 15 nM.

For the molecule `O=C(O)[C@@H]1[C@@H](O)[C@H](O)CNC12CC2` [Example 9, (6R,7R,8S)-6,7-dihydroxy-4-azaspiro[2.5]octane-8-carboxylic acid], the IC50 was 507 nM.
